Data as given in ChEMBL document CHEMBL1148281, “Carbonic anhydrase inhibitors: synthesis and topical intraocular pressure lowering effects of fluorine-containing inhibitors devoid of enhanced reactivity” (J Med Chem, 2004).

Tests used:
[1] = molecular target: T1, Carbonic anhydrase 4 (Bos taurus, UniProt Q95323)
T1 sequence (Q95323 whole entry): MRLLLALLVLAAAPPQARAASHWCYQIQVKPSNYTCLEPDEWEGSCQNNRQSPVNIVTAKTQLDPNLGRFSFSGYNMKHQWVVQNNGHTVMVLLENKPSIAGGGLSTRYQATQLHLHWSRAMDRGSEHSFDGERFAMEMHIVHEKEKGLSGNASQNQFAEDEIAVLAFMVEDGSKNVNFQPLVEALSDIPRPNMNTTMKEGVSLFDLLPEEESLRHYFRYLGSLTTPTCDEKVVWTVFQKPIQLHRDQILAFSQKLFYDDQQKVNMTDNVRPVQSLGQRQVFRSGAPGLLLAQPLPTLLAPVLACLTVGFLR
Description: In vitro inhibitory activity against bovine carbonic anhydrase IV (CAIV)

[2] = Reactivity against cysteine after 24 hours of incubation; type: functional
[3] = Reactivity against glutathione after 24 hours of incubation; type: functional
[4] = molecular target: Carbonic anhydrase 2 (Homo sapiens, UniProt P00918)
Description: In vitro inhibitory activity against human carbonic anhydrase II (hCAII)

[5] = molecular target: Carbonic anhydrase 1 (Homo sapiens, UniProt P00915)
Carbonic anhydrase 1, sequence (P00915 whole entry): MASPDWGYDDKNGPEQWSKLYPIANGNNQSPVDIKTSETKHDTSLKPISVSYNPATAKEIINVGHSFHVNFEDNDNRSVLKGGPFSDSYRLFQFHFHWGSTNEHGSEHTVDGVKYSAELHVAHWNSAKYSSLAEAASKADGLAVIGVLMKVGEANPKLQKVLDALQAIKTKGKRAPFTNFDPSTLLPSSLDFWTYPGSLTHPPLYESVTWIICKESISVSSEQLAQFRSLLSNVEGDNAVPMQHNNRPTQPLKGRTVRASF
Description: In vitro inhibitory activity against human carbonic anhydrase I (hCAI)

SMILES	Ki [1] [µM]	Reactivity [2] [%]	Reactivity [3] [%]	Ki [4] [µM]	Ki [5] [µM]
NS(=O)(=O)c1ccccc1NC(=O)c1c(F)c(F)cc(F)c1F	0.69				
NS(=O)(=O)c1ccc(NC(=O)c2c(F)c(F)cc(F)c2F)c(Br)c1	0.05				
NS(=O)(=O)c1nnc(NS(=O)(=O)c2c(F)c(F)cc(F)c2F)s1	0.015	0	0		
NS(=O)(=O)c1ccc(CNC(=O)c2c(F)c(F)cc(F)c2F)cc1	0.12				
NS(=O)(=O)c1ccc(NC(=O)Nc2c(F)c(F)c(F)c(F)c2F)c(Cl)c1	0.245			0.08	1.3
NS(=O)(=O)c1ccc(NC(=O)c2c(F)c(F)cc(F)c2F)c(F)c1	0.031	0	0		
NS(=O)(=O)c1ccc(NC(=O)c2c(F)c(F)cc(F)c2F)cc1	0.4				
Cn1nc(S(N)(=O)=O)s/c1=N/C(=O)c1c(F)c(F)cc(F)c1F	0.028			0.0014	0.27
NS(=O)(=O)c1ccc(CCNC(=O)c2c(F)c(F)cc(F)c2F)cc1	0.094				
NS(=O)(=O)c1cccc(NC(=O)Nc2c(F)c(F)c(F)c(F)c2F)c1	0.43				
NS(=O)(=O)c1cc(S(N)(=O)=O)c(NC(=O)Nc2c(F)c(F)c(F)c(F)c2F)cc1Cl	0.058			0.016	0.74
NS(=O)(=O)c1ccc(CCNS(=O)(=O)c2c(F)c(F)cc(F)c2F)cc1	0.076				
NS(=O)(=O)c1ccc(NS(=O)(=O)c2c(F)c(F)cc(F)c2F)c(F)c1	0.042			0.0038	0.58
NS(=O)(=O)c1cccc(NC(=O)c2c(F)c(F)cc(F)c2F)c1	0.43				
NS(=O)(=O)c1ccc(NS(=O)(=O)c2ccc(NC(=O)c3c(F)c(F)cc(F)c3F)cc2)cc1	0.063				
NS(=O)(=O)c1ccc(CCNC(=O)Nc2c(F)c(F)c(F)c(F)c2F)cc1	0.041			0.015	0.94
NS(=O)(=O)c1ccc(Nc2ccnc(NS(=O)(=O)c3c(F)c(F)cc(F)c3F)n2)cc1	0.021			0.013	0.32

SMILES	Ki [1] [µM]	Reactivity [2] [%]	Reactivity [3] [%]	Ki [4] [µM]	Ki [5] [µM]
NS(=O)(=O)c1ccc(NC(=O)c2c(F)c(F)c(F)c(F)c2F)c(F)c1		55	49		
NS(=O)(=O)c1ccc(NC(=O)Nc2c(F)c(F)c(F)c(F)c2F)cc1	0.021	0	0		
NS(=O)(=O)c1ccccc1NC(=O)Nc1c(F)c(F)c(F)c(F)c1F	0.485			0.044	1.75
NS(=O)(=O)c1ccc(CNS(=O)(=O)c2c(F)c(F)cc(F)c2F)cc1	0.135				
NS(=O)(=O)c1nnc(NC(=O)Nc2c(F)c(F)c(F)c(F)c2F)s1	0.045			0.0036	0.27
NS(=O)(=O)c1nnc(NC(=O)c2c(F)c(F)cc(F)c2F)s1	0.024				
NS(=O)(=O)c1ccc(NS(=O)(=O)c2c(F)c(F)cc(F)c2F)cc1	0.33			0.025	1.3
NS(=O)(=O)c1ccc(CNS(=O)(=O)c2ccc(NC(=O)c3c(F)c(F)cc(F)c3F)cc2)cc1	0.054				
NS(=O)(=O)c1ccc(NC(=O)Nc2c(F)c(F)c(F)c(F)c2F)c(F)c1	0.063			0.018	0.76
NS(=O)(=O)c1ccc(NC(=O)c2c(F)c(F)cc(F)c2F)c(Cl)c1	0.042				
NS(=O)(=O)c1ccc(CCNS(=O)(=O)c2ccc(NC(=O)c3c(F)c(F)cc(F)c3F)cc2)cc1	0.049				
NS(=O)(=O)c1ccc(CNC(=O)Nc2c(F)c(F)c(F)c(F)c2F)cc1	0.05			0.015	1
COc1ccc(NS(=O)(=O)c2c(F)c(F)c(F)c(F)c2F)cc1		98	96		
NS(=O)(=O)c1ccc(NC(=O)Nc2c(F)c(F)c(F)c(F)c2F)c(Br)c1	0.36			0.095	1.96
NS(=O)(=O)c1nnc(NS(=O)(=O)c2c(F)c(F)c(F)c(F)c2F)s1		76	68		
NS(=O)(=O)c1ccc(NS(=O)(=O)c2c(F)c(F)cc(F)c2F)c(Cl)c1	0.049			0.061	0.93
